{"source": "patent US20220046923A1", "about": "“HERBICIDAL CINNOLINIUM COMPOUNDS” (SYNGENTA CROP PROTECTION AG, priority 2018, published 2022)", "test_in_all_cases": "Post-emergence efficacy, glasshouse spray test", "format_in_all_cases": "in vivo", "key": {"Setaria faberi (SETFA)": {"system": "Setaria faberi (SETFA)", "conditions": "Setaria faberi, post-emergence, 312 h; application rate 1000 g/Ha; evaluated after 13 days; read-out: Control of weed species SETFA after post-emergence application (100=total damage to plant; 0=no damage to plant)", "protocol": "(§1) Seeds of a variety of test species were sown in standard soil in pots. After cultivation for 14 days (post-emergence) under controlled conditions in a glasshouse (at 24/16° C., day/night; 14 hours light; 65% humidity), the plants were sprayed with an aqueous spray solution derived from the dissolution of the technical active ingredient formula (I) in a small amount of acetone and a special solvent and emulsifier mixture referred to as IF50 (11.12% Emulsogen EL360 TM+44.44% N-methylpyrrolidone+44.44% Dowanol DPM glycol ether), to create a 50 g/l solution which was then diluted to required concentration using 0.25% or 1% Empicol ESC70 (Sodium lauryl ether sulphate)+1% ammonium sulphate as diluent. The test plants were then grown in a glasshouse under controlled conditions (at 24/16° C., day/night; 14 hours light; 65% humidity) and watered twice daily. After 13 days the test was evaluated (100=total damage to plant; 0=no damage to plant).\n(§2) Ipomoea hederacea (IPOHE), Euphorbia heterophylla (EPHHL), Chenopodium album (CHEAL), Amaranthus palmeri (AMAPA), Lolium perenne (LOLPE), Digitaria sanguinalis (DIGSA), Eleusine indica (ELEIN), Echinochloa crus-galli (ECHCG), Setaria faberi (SETFA)"}, "Eleusine indica (ELEIN)": {"system": "Eleusine indica (ELEIN)", "conditions": "Eleusine indica, post-emergence, 312 h; application rate 1000 g/Ha; evaluated after 13 days; read-out: Control of weed species ELEIN after post-emergence application (100=total damage to plant; 0=no damage to plant)", "protocol": "as §1, §2"}, "Lolium perenne (LOLPE)": {"system": "Lolium perenne (LOLPE)", "conditions": "Lolium perenne, post-emergence, 312 h; application rate 1000 g/Ha; evaluated after 13 days; read-out: Control of weed species LOLPE after post-emergence application (100=total damage to plant; 0=no damage to plant)", "protocol": "as §1, §2"}, "[1]": {"system": "Chenopodium album (CHEAL)", "conditions": "Chenopodium album, post-emergence, 312 h; application rate 1000 g/Ha; evaluated after 13 days; read-out: Control of weed species CHEAL after post-emergence application (100=total damage to plant; 0=no damage to plant)", "protocol": "as §1, §2"}, "[2]": {"system": "Amaranthus palmeri (AMAPA)", "conditions": "Amaranthus palmeri, post-emergence, 312 h; application rate 1000 g/Ha; evaluated after 13 days; read-out: Control of weed species AMAPA after post-emergence application (100=total damage to plant; 0=no damage to plant)", "protocol": "as §1, §2"}, "[3]": {"system": "Euphorbia heterophylla (EPHHL)", "conditions": "Euphorbia heterophylla, post-emergence, 312 h; application rate 1000 g/Ha; evaluated after 13 days; read-out: Control of weed species EPHHL after post-emergence application (100=total damage to plant; 0=no damage to plant)", "protocol": "as §1, §2"}, "[4]": {"system": "Digitaria sanguinalis (DIGSA)", "conditions": "Digitaria sanguinalis, post-emergence, 312 h; application rate 1000 g/Ha; evaluated after 13 days; read-out: Control of weed species DIGSA after post-emergence application (100=total damage to plant; 0=no damage to plant)", "protocol": "as §1, §2"}, "[5]": {"system": "Echinochloa crus-galli (ECHCG)", "conditions": "Echinochloa crus-galli, post-emergence, 312 h; application rate 1000 g/Ha; evaluated after 13 days; read-out: Control of weed species ECHCG after post-emergence application (100=total damage to plant; 0=no damage to plant)", "protocol": "as §1, §2"}, "[6]": {"system": "Ipomoea hederacea (IPOHE)", "conditions": "Ipomoea hederacea, post-emergence, 312 h; application rate 1000 g/Ha; evaluated after 13 days; read-out: Control of weed species IPOHE after post-emergence application (100=total damage to plant; 0=no damage to plant)", "protocol": "as §1, §2"}}, "data": [{"compound": "O=C([O-])C[n+]1ccc2ccccc2n1", "note": "[Compound A2, 2-cinnolin-2-ium-2-ylacetate]", "values": [{"measurement": "pest or weed control at 1000 g/ha", "setting": "Setaria faberi (SETFA)", "result": 80, "unit": "%"}, {"measurement": "pest or weed control at 1000 g/ha", "setting": "Eleusine indica (ELEIN)", "result": 100, "unit": "%"}, {"measurement": "pest or weed control at 1000 g/ha", "setting": "Lolium perenne (LOLPE)", "result": 20, "unit": "%"}, {"measurement": "pest or weed control at 1000 g/ha", "setting": "[1]", "result": 80, "unit": "%"}, {"measurement": "pest or weed control at 1000 g/ha", "setting": "[2]", "result": 100, "unit": "%"}, {"measurement": "pest or weed control at 1000 g/ha", "setting": "[3]", "result": 90, "unit": "%"}, {"measurement": "pest or weed control at 1000 g/ha", "setting": "[4]", "result": 100, "unit": "%"}, {"measurement": "pest or weed control at 1000 g/ha", "setting": "[5]", "result": 100, "unit": "%"}, {"measurement": "pest or weed control at 1000 g/ha", "setting": "[6]", "result": 40, "unit": "%"}]}, {"compound": "COC(=O)C[n+]1cc(C)c2cc(C)cc(C)c2n1", "note": "[Compound A3]", "values": [{"measurement": "pest or weed control at 1000 g/ha", "setting": "Setaria faberi (SETFA)", "result": 10, "unit": "%"}, {"measurement": "pest or weed control at 1000 g/ha", "setting": "Eleusine indica (ELEIN)", "result": 0, "unit": "%"}, {"measurement": "pest or weed control at 1000 g/ha", "setting": "Lolium perenne (LOLPE)", "result": 20, "unit": "%"}, {"measurement": "pest or weed control at 1000 g/ha", "setting": "[1]", "result": 10, "unit": "%"}, {"measurement": "pest or weed control at 1000 g/ha", "setting": "[2]", "result": 20, "unit": "%"}, {"measurement": "pest or weed control at 1000 g/ha", "setting": "[3]", "result": 20, "unit": "%"}, {"measurement": "pest or weed control at 1000 g/ha", "setting": "[4]", "result": 0, "unit": "%"}, {"measurement": "pest or weed control at 1000 g/ha", "setting": "[5]", "result": 0, "unit": "%"}, {"measurement": "pest or weed control at 1000 g/ha", "setting": "[6]", "result": 10, "unit": "%"}]}, {"compound": "Cc1cc(C)c2n[n+](CC(=O)[O-])cc(C)c2c1", "note": "[Compound A4]", "values": [{"measurement": "pest or weed control at 1000 g/ha", "setting": "Setaria faberi (SETFA)", "result": 0, "unit": "%"}, {"measurement": "pest or weed control at 1000 g/ha", "setting": "Eleusine indica (ELEIN)", "result": 20, "unit": "%"}, {"measurement": "pest or weed control at 1000 g/ha", "setting": "Lolium perenne (LOLPE)", "result": 10, "unit": "%"}, {"measurement": "pest or weed control at 1000 g/ha", "setting": "[1]", "result": 10, "unit": "%"}, {"measurement": "pest or weed control at 1000 g/ha", "setting": "[2]", "result": 40, "unit": "%"}, {"measurement": "pest or weed control at 1000 g/ha", "setting": "[3]", "result": 40, "unit": "%"}, {"measurement": "pest or weed control at 1000 g/ha", "setting": "[4]", "result": 10, "unit": "%"}, {"measurement": "pest or weed control at 1000 g/ha", "setting": "[5]", "result": 10, "unit": "%"}, {"measurement": "pest or weed control at 1000 g/ha", "setting": "[6]", "result": 30, "unit": "%"}]}, {"compound": "CONC(=O)C[n+]1cc(C)c2cc(C)cc(C)c2n1", "note": "[Compound A5]", "values": [{"measurement": "pest or weed control at 1000 g/ha", "setting": "Setaria faberi (SETFA)", "result": 10, "unit": "%"}, {"measurement": "pest or weed control at 1000 g/ha", "setting": "Eleusine indica (ELEIN)", "result": 10, "unit": "%"}, {"measurement": "pest or weed control at 1000 g/ha", "setting": "Lolium perenne (LOLPE)", "result": 0, "unit": "%"}, {"measurement": "pest or weed control at 1000 g/ha", "setting": "[1]", "result": 20, "unit": "%"}, {"measurement": "pest or weed control at 1000 g/ha", "setting": "[2]", "result": 30, "unit": "%"}, {"measurement": "pest or weed control at 1000 g/ha", "setting": "[3]", "result": 30, "unit": "%"}, {"measurement": "pest or weed control at 1000 g/ha", "setting": "[4]", "result": 10, "unit": "%"}, {"measurement": "pest or weed control at 1000 g/ha", "setting": "[5]", "result": 0, "unit": "%"}, {"measurement": "pest or weed control at 1000 g/ha", "setting": "[6]", "result": 20, "unit": "%"}]}, {"compound": "Cc1cc(C)c2n[n+](CC(=O)OC(C)C)cc(C)c2c1", "note": "[Compound A6, isopropyl 2-(4,6,8-trimethylcinnolin-2-ium-2-yl)acetate chloride]", "values": [{"measurement": "pest or weed control at 1000 g/ha", "setting": "Setaria faberi (SETFA)", "result": 10, "unit": "%"}, {"measurement": "pest or weed control at 1000 g/ha", "setting": "Eleusine indica (ELEIN)", "result": 30, "unit": "%"}, {"measurement": "pest or weed control at 1000 g/ha", "setting": "Lolium perenne (LOLPE)", "result": 10, "unit": "%"}, {"measurement": "pest or weed control at 1000 g/ha", "setting": "[1]", "result": 20, "unit": "%"}, {"measurement": "pest or weed control at 1000 g/ha", "setting": "[2]", "result": 40, "unit": "%"}, {"measurement": "pest or weed control at 1000 g/ha", "setting": "[3]", "result": 30, "unit": "%"}, {"measurement": "pest or weed control at 1000 g/ha", "setting": "[4]", "result": 10, "unit": "%"}, {"measurement": "pest or weed control at 1000 g/ha", "setting": "[5]", "result": 10, "unit": "%"}, {"measurement": "pest or weed control at 1000 g/ha", "setting": "[6]", "result": 10, "unit": "%"}]}, {"compound": "COC(=O)C[n+]1cc(C)c2cccc(C)c2n1", "note": "[Compound A7]", "values": [{"measurement": "pest or weed control at 1000 g/ha", "setting": "Setaria faberi (SETFA)", "result": 10, "unit": "%"}, {"measurement": "pest or weed control at 1000 g/ha", "setting": "Eleusine indica (ELEIN)", "result": 20, "unit": "%"}, {"measurement": "pest or weed control at 1000 g/ha", "setting": "Lolium perenne (LOLPE)", "result": 20, "unit": "%"}, {"measurement": "pest or weed control at 1000 g/ha", "setting": "[1]", "result": 30, "unit": "%"}, {"measurement": "pest or weed control at 1000 g/ha", "setting": "[2]", "result": 30, "unit": "%"}, {"measurement": "pest or weed control at 1000 g/ha", "setting": "[3]", "result": 20, "unit": "%"}, {"measurement": "pest or weed control at 1000 g/ha", "setting": "[4]", "result": 0, "unit": "%"}, {"measurement": "pest or weed control at 1000 g/ha", "setting": "[5]", "result": 10, "unit": "%"}, {"measurement": "pest or weed control at 1000 g/ha", "setting": "[6]", "result": 10, "unit": "%"}]}, {"compound": "Cc1c[n+](CC(=O)[O-])nc2c(C)cccc12", "note": "[Compound A8]", "values": [{"measurement": "pest or weed control at 1000 g/ha", "setting": "Setaria faberi (SETFA)", "result": 10, "unit": "%"}, {"measurement": "pest or weed control at 1000 g/ha", "setting": "Eleusine indica (ELEIN)", "result": 50, "unit": "%"}, {"measurement": "pest or weed control at 1000 g/ha", "setting": "Lolium perenne (LOLPE)", "result": 10, "unit": "%"}, {"measurement": "pest or weed control at 1000 g/ha", "setting": "[1]", "result": 60, "unit": "%"}, {"measurement": "pest or weed control at 1000 g/ha", "setting": "[2]", "result": 50, "unit": "%"}, {"measurement": "pest or weed control at 1000 g/ha", "setting": "[3]", "result": 40, "unit": "%"}, {"measurement": "pest or weed control at 1000 g/ha", "setting": "[4]", "result": 30, "unit": "%"}, {"measurement": "pest or weed control at 1000 g/ha", "setting": "[5]", "result": 20, "unit": "%"}, {"measurement": "pest or weed control at 1000 g/ha", "setting": "[6]", "result": 30, "unit": "%"}]}]}
